What was measured:
[1] = target: recombinant N-terminal MLH1 (residues 15-340) (Homo sapiens (Human), UniProt P40692); assay: Fluorescence polarisation assay for MLH1 (protocol for all Examples except Examples 64, 76, 90 and 95); assay type: binding; conditions: FP probe displacement; 100 nM N-terminal MLH1, 5 nM probe compound, read after 15 minutes; all Examples except 64, 76, 90 and 95
Description: Fluorescence Polarisation Assay for MLH1 (Protocol for all Examples Except Examples 64, 76, 90 and 95)
(§1) Test compounds, as 10 mM DMSO stocks, were dispensed into a Black Fluotrac 200 384 well medium binding plate (Greiner Bio-One, item number 781076) using a Labcyte Echo acoustic liquid handler. For single point screening, test compounds were added to wells in columns 1-22 whilst DMSO was added to wells in columns 23 and 24 in order to normalise the plate. For potency determination, serial dilutions of test compounds were added to wells in columns 3-22 and DMSO volume was normalised across the plate.
20 μL assay buffer was added to all wells in columns 1 and 24 (column 24 only for single point screening) using a MultiDrop Combi (ThermoFisher). Plates were centrifuged for 1 minute at 250×g and were incubated at room temperature for 30 minutes prior to the addition of 20 μL of 2×(10 nM) of 5-((5-(4-((2-(2,4-dihydroxy-5-isopropylbenzoyl)isoindolin-5-yl)methyl)piperazin-1-yl)pentyl)carbamoyl)-2-(6-(dimethylamino)-3-(dimethyliminio)-3H-xanthen-9-yl)benzoate (referred to hereinafter as “probe compound”) in assay buffer (prepared from a 100 μM DMSO stock) with a MultiDrop Combi (ThermoFisher). The final concentration of N-terminal MLH1 was 100 nM and the final concentration of probe compound was 5 nM.
(§2) Compound plates were centrifuged for 1 minute at 250×g for 1 minute and were incubated at room temperature for 15 minutes before being read on a PheraStar FSX (fitted with 384-well aperture spoon and 540 590 590 FP optic module). The gain and focus were adjusted before each plate was read so that the polarisation of a no enzyme control (column 24) was equal to 35 mP. Data were normalised against the no inhibitor controls (column 23) and no enzyme controls (column 24).

[2] = target: recombinant N-terminal PMS2 (residues 1-365) (Homo sapiens (Human), UniProt P54278); assay: Fluorescence polarisation assay for PMS2; assay type: binding; conditions: FP probe displacement; 10 nM N-terminal PMS2, 5 nM probe compound, read after 1 hour
Description: Fluorescence Polarisation Assay for PMS2
as §1
20 μL assay buffer was added to all wells in columns 1 and 24 (column 24 only for single point screening) using a MultiDrop Combi (ThermoFisher). Plates were centrifuged for 1 minute at 250×g and were incubated at room temperature for 30 minutes prior to the addition of 20 μL of 2×([…]) of 5-((5-(4-((2-(2,4-dihydroxy-5-isopropylbenzoyl)isoindolin-5-yl)methyl)piperazin-1-yl)pentyl)carbamoyl)-2-(6-(dimethylamino)-3-(dimethyliminio)-3H-xanthen-9-yl)benzoate (referred to hereinafter as “probe compound”) in assay buffer (prepared from a 100 μM DMSO stock) with a MultiDrop Combi (ThermoFisher). The final concentration of N-terminal PMS2 was 10 nM and the final concentration of probe compound was 5 nM.
as §2, with “1 hour” for “15 minutes”

Sequence of recombinant N-terminal MLH1 (residues 15-340) (P40692 15-340): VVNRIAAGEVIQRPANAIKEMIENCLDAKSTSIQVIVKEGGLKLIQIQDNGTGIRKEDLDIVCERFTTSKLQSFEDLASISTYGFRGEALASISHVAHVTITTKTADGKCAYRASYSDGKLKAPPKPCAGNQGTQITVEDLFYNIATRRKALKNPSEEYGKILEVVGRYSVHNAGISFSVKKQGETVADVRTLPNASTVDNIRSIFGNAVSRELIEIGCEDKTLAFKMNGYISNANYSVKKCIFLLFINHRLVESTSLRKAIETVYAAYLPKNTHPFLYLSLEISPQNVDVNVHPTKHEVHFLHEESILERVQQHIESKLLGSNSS
Sequence of recombinant N-terminal PMS2 (residues 1-365) (P54278 1-365): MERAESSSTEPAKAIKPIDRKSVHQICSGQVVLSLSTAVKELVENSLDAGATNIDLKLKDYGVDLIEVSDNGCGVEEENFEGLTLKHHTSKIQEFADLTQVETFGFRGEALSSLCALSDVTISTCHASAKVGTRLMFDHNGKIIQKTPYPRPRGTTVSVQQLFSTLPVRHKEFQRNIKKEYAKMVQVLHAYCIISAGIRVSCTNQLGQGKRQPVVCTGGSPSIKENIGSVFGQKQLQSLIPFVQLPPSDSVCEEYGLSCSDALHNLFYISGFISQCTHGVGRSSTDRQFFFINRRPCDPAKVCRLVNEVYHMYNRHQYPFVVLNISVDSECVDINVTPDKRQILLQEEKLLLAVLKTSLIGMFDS

With Cc1cccc(COc2cc(O)cc(O)c2C(=O)N2Cc3cccnc3C2)c1 [Example 32, 5,7-dihydropyrrolo[3,4-b]pyridin-6-yl-[2,4-dihydroxy-6-(m-tolylmethoxy)phenyl]methanone] the IC50 [1] was 1 to 10 µM and the IC50 [2] was < 1000 nM.

For Cc1c(O)cc(O)c(C(=O)N2Cc3cccnc3C2)c1OCc1ccccn1 [Example 33, 5,7-dihydropyrrolo[3,4-b]pyridin-6-yl-[4,6-dihydroxy-3-methyl-2-(2-pyridylmethoxy)phenyl]methanone], the IC50 [1] was > 10 µM and the IC50 [2] was 1000 to 10000 nM.

Cc1c(O)cc(O)c(C(=O)N2Cc3ccccc3C2)c1OCc1ccccn1 [Example 34, [4,6-dihydroxy-3-methyl-2-(2-pyridylmethoxy)phenyl]-isoindolin-2-yl-methanone] was tested, and the IC50 [1] was > 10 µM and the IC50 [2] was 1000 to 10000 nM.

O=C(c1c(O)cc(O)cc1OCc1ccccn1)N1Cc2cccnc2C1 [Example 35, 5,7-dihydropyrrolo[3,4-b]pyridin-6-yl-[2,4-dihydroxy-6-(2-pyridylmethoxy)phenyl]methanone] gave an IC50 [1] of 1 to 10 µM and an IC50 [2] of 1000 to 10000 nM.

Cc1c(O)cc(O)c(C(=O)N2CCc3ccccc3C2)c1OCc1ccccc1 [Example 36, (2-benzyloxy-4,6-dihydroxy-3-methyl-phenyl)-(3,4-dihydro-1H-isoquinolin-2-yl)methanone] was tested, and the IC50 [1] was > 10 µM and the IC50 [2] was < 1000 nM.

O=C(c1c(O)cc(O)cc1OCc1ccccn1)N1Cc2ccccc2C1 [Example 37, [2,4-dihydroxy-6-(2-pyridylmethoxy)phenyl]-isoindolin-2-yl-methanone] gave an IC50 [1] of 1 to 10 µM and an IC50 [2] of 1000 to 10000 nM.

For Cc1c(O)cc(O)c(C(=O)N2Cc3cccc(CO)c3C2)c1OCc1ccccc1 [Example 39, (2-benzyloxy-4,6-dihydroxy-3-methyl-phenyl)-[4-(hydroxymethyl)isoindolin-2-yl]methanone], the IC50 [1] was > 10 µM and the IC50 [2] was < 1000 nM.

In the case of Cc1c(O)cc(O)c(C(=O)N2Cc3ccc(CN4CCN(C)CC4)cc3C2)c1OCc1ccccc1 [Example 40, (2-benzyloxy-4,6-dihydroxy-3-methyl-phenyl)-[5-[(4-methylpiperazin-1-yl)methyl]isoindolin-2-yl]methanone], the IC50 [1] is reported as > 10 µM and the IC50 [2] is reported as < 1000 nM.

With COc1ccc2c(c1)CCN(C(=O)c1c(O)cc(O)c(C)c1OCc1ccccc1)C2 [Example 41, (2-benzyloxy-4,6-dihydroxy-3-methyl-phenyl)-(6-methoxy-3,4-dihydro-1H-isoquinolin-2-yl)methanone] the IC50 [1] was > 10 µM and the IC50 [2] was < 1000 nM.

In the case of Cc1c(O)cc(O)c(C(=O)N2CCc3ccncc3C2)c1OCc1ccccc1 [Example 42, (2-benzyloxy-4,6-dihydroxy-3-methyl-phenyl)-(3,4-dihydro-1H-2,7-naphthyridin-2-yl)methanone], the IC50 [1] is reported as > 10 µM and the IC50 [2] is reported as 1000 to 10000 nM.

With Cc1c(O)cc(O)c(C(=O)N2CCc3cnccc3C2)c1OCc1ccccc1 [Example 43, (2-benzyloxy-4,6-dihydroxy-3-methyl-phenyl)-(3,4-dihydro-1H-2,6-naphthyridin-2-yl)methanone] the IC50 [1] was > 10 µM and the IC50 [2] was 1000 to 10000 nM.

Cc1cccc(COc2c(C)c(O)cc(O)c2C(=O)N2CCc3ccccc3C2)c1 [Example 44, 3,4-dihydro-1H-isoquinolin-2-yl-[4,6-dihydroxy-3-methyl-2-(m-tolylmethoxy)phenyl]methanone] was tested, and the IC50 [1] was > 10 µM and the IC50 [2] was < 1000 nM.

In the case of COc1ccc2c(c1)CCN(C(=O)c1c(O)cc(O)c(C)c1OCc1ccccn1)C2 [Example 47, [4,6-dihydroxy-3-methyl-2-(2-pyridylmethoxy)phenyl]-(6-methoxy-3,4-dihydro-1H-isoquinolin-2-yl)methanone], the IC50 [1] is reported as > 10 µM and the IC50 [2] is reported as > 10000 nM.

For Cc1c(O)cc(O)c(C(=O)N2CCc3ccccc3C2)c1OCc1ccc(F)cc1 [Example 48, 3,4-dihydro-1H-isoquinolin-2-yl-[2-[(4-fluorophenyl)methoxy]-4,6-dihydroxy-3-methyl-phenyl]methanone], the IC50 [1] was > 10 µM and the IC50 [2] was < 1000 nM.

For CN1CCN(Cc2ccc3c(c2)CN(C(=O)c2c(O)cc(O)cc2OCc2ccccc2)C3)CC1 [Example 49, (2-(benzyloxy)-4,6-dihydroxyphenyl)(5-((4-methylpiperazin-1-yl)methyl)isoindolin-2-yl)methanone], the IC50 [1] was 1 to 10 µM and the IC50 [2] was < 1000 nM.

In the case of Cc1c(O)cc(O)c(C(=O)N2Cc3cccc(N)c3C2)c1OCc1ccccc1 [Example 50, (4-aminoisoindolin-2-yl)(2-(benzyloxy)-4,6-dihydroxy-3-methylphenyl)methanone], the IC50 [1] is reported as > 10 µM and the IC50 [2] is reported as < 1000 nM.

For C=Cc1cccc2c1CN(C(=O)c1c(O)cc(O)c(C)c1OCc1ccccc1)C2 [Example 51, (2-(benzyloxy)-4,6-dihydroxy-3-methylphenyl)(4-vinylisoindolin-2-yl)methanone], the IC50 [1] was > 10 µM and the IC50 [2] was < 1000 nM.

COc1ccc2c(c1)CN(C(=O)c1c(O)cc(O)c(C)c1OCc1ccccc1)CC2 [Example 52, (2-(benzyloxy)-4,6-dihydroxy-3-methylphenyl)(7-methoxy-3,4-dihydroisoquinolin-2(1H)-yl)methanone] was tested, and the IC50 [1] was > 10 µM and the IC50 [2] was < 1000 nM.

With Cc1c(O)cc(O)c(C(=O)N2CCc3cccnc3C2)c1OCc1ccccc1 [Example 53, (2-(benzyloxy)-4,6-dihydroxy-3-methylphenyl)(5,8-dihydro-1,7-naphthyridin-7(6H)-yl)methanone] the IC50 [1] was > 10 µM and the IC50 [2] was 1000 to 10000 nM.

For Cc1c(O)cc(O)c(C(=O)N2CCc3ncccc3C2)c1OCc1ccccc1 [Example 54, (2-(benzyloxy)-4,6-dihydroxy-3-methylphenyl)(7,8-dihydro-1,6-naphthyridin-6(5H)-yl)methanone], the IC50 [1] was > 10 µM and the IC50 [2] was 1000 to 10000 nM.

With Cc1c(O)cc(O)c(C(=O)N2CCc3ncncc3C2)c1OCc1ccccc1 [Example 55, (2-(benzyloxy)-4,6-dihydroxy-3-methylphenyl)(7,8-dihydropyrido[4,3-d]pyrimidin-6(5H)-yl)methanone] the IC50 [1] was > 10 µM and the IC50 [2] was 1000 to 10000 nM.

For Cc1c(O)cc(O)c(C(=O)N2CCc3cncnc3C2)c1OCc1ccccc1 [Example 56, (2-(benzyloxy)-4,6-dihydroxy-3-methylphenyl)(5,8-dihydropyrido[3,4-d]pyrimidin-7(6H)-yl)methanone], the IC50 [1] was > 10 µM and the IC50 [2] was 1000 to 10000 nM.

For Cc1c(O)cc(O)c(C(=O)N2CCc3ccccc3C2)c1OCc1ccn(C)n1 [Example 57, (3,4-dihydroisoquinolin-2(1H)-yl)(4,6-dihydroxy-3-methyl-2-((1-methyl-1H-pyrazol-3-yl)methoxy)phenyl)methanone], the IC50 [1] was > 10 µM and the IC50 [2] was > 10000 nM.

In the case of O=C(c1c(O)cc(O)cc1OCc1ccccc1)N1CCc2ccccc2C1 [Example 58, (2-(benzyloxy)-4,6-dihydroxyphenyl)(3,4-dihydroisoquinolin-2(1H)-yl)methanone], the IC50 [1] is reported as 1 to 10 µM and the IC50 [2] is reported as 1000 to 10000 nM.

For Cc1c(O)cc(O)c(C(=O)N2Cc3ccccc3C2)c1OCc1ccccc1 [Example 59, (2-(benzyloxy)-4,6-dihydroxy-3-methylphenyl)(isoindolin-2-yl)methanone], the IC50 [1] was > 10 µM and the IC50 [2] was < 1000 nM.

In the case of Cc1c(O)cc(O)c(C(=O)N2CCc3ccc(CN(C)C)cc3C2)c1OCc1ccccc1 [Example 60, (2-(benzyloxy)-4,6-dihydroxy-3-methylphenyl)(7-((dimethylamino)methyl)-3,4-dihydroisoquinolin-2(1H)-yl)methanone], the IC50 [1] is reported as > 10 µM and the IC50 [2] is reported as < 1000 nM.

Cc1c(O)cc(O)c(C(=O)N2CCc3cc(CN(C)C)ccc3C2)c1OCc1ccccc1 [Example 61, (2-(benzyloxy)-4,6-dihydroxy-3-methylphenyl)(6-((dimethylamino)methyl)-3,4-dihydroisoquinolin-2(1H)-yl)methanone] was tested, and the IC50 [1] was > 10 µM and the IC50 [2] was < 1000 nM.

For Cc1c(O)cc(O)c(C(=O)N2Cc3ccccc3C[C@H]2CO)c1OCc1ccccc1 [Example 62, (S)-(2-(Benzyloxy)-4,6-dihydroxy-3-methylphenyl)(3-(hydroxymethyl)-3,4-dihydroisoquinolin-2(1H)-yl)methanone], the IC50 [1] was > 10 µM and the IC50 [2] was 1000 to 10000 nM.

Source: US12552758B2, “Inhibitors of MLH1 and/or PMS2 for cancer treatment” (NeoPhore Limited, priority 2020, dated 2026)
